In this assay the test system is 8226-2A1 cells. As to the kind of experiment: MTT in vitro cytotoxicity assay of BCMA antibody conjugates, 8226-2A1. It counts as cell-based. The settings on record: 15000 cells, 96 h incubation. On the procedure:
The cell lines used in the cytotoxicity assays were (1). […] To run the assay, the cells (180 μl, 6000 cells) were added to each well in a 96-well plate and incubated for 24 hours at 37° C. with 5% CO2. Next, the cells were treated with test compounds (20 μl) at various concentrations in appropriate cell culture medium (total volume, 0.2 mL). The control wells contain cells and the medium but lack the test compounds. […] MTT (5 mg/mL) was then added to the wells (20 μl) and the plates were incubated for 1.5 hr at 37° C. The medium was carefully removed and DMSO (180 μl) was added afterward. After it was shaken for 15 min, the absorbance was measured at 490 nm and 570 nm with a reference filter of 620 nm. The inhibition % was calculated according to the following equation: inhibition %=[1−(assay-blank)/(control-blank)]×100.

From patent publication US20260158156A1, “SPECIFIC CONJUGATION OF AN ANTIBODY” (priority 2021, published 2026) come the findings set out here.

For `CC(=O)O[C@H]1C(=O)[C@@]2(C)[C@H]([C@H](OC(=O)c3ccccc3)[C@]3(O)C[C@H](OC(=O)[C@H](O)[C@@H](NC(=O)c4ccccc4)c4ccccc4)C(C)=C1C3(C)C)[C@]1(OC(C)=O)CO[C@@H]1C[C@@H]2O` [Paclitaxel], it took 3.71 nM to reach half-maximal inhibition (IC50). That is a single-digit nanomolar value.
